{"source": "PubChem BioAssay AID330", "about": "(DTP/NCI, 2004)", "tested_on": "P388 leukemia ip, CD2F1 mice, survival T/C", "experiment": "NCI In Vivo Anticancer Drug Screen. Data for tumor model P388 Leukemia (intraperitoneal) in CD2F1 (CDF1) mice", "details": "endpoint: median survival time, higher = longer survival", "summary_of_the_method": "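Mice carrying the transplanted tumor received test compound or vehicle. Survival was recorded in each group, and the value is the treated-group measurement divided by that of the vehicle-treated control group.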", "key": {"[1]": {"details": "dose: 50.0 mg/kg/injection, schedule: Q01DX005 (ip), vehicle: Klucel (hydroxypropylcellulose) (HPC)"}, "[2]": {"details": "dose: 100.0 mg/kg/injection, schedule: Q01DX005 (ip), vehicle: Klucel (hydroxypropylcellulose) (HPC)"}, "[3]": {"details": "dose: 200.0 mg/kg/injection, schedule: Q01DX005 (ip), vehicle: Klucel (hydroxypropylcellulose) (HPC)"}, "[4]": {"details": "dose: 60.0 mg/kg/injection, schedule: Q01DX005 (ip), vehicle: saline with Tween-80"}, "[5]": {"details": "dose: 120.0 mg/kg/injection, schedule: Q01DX005 (ip), vehicle: saline with Tween-80"}, "[6]": {"details": "dose: 240.0 mg/kg/injection, schedule: Q01DX005 (ip), vehicle: saline with Tween-80"}}, "note": "“And” between values parts separate entries of the source, which are not always exact repeats. Identical values can stand only once. Inconclusive results and toxic doses are left out.", "data": [{"compound": "N#CC1C(=O)NC(=O)C(C#N)C1CCc1ccccc1", "note": "(centres undefined)", "values": [{"measurement": "T/C", "setting": "dose: 50.0 mg/kg/injection, schedule: Q01DX009 (ip), vehicle: distilled water + alcohol", "value": "103 % of control"}, {"measurement": "T/C", "setting": "dose: 100.0 mg/kg/injection, schedule: Q01DX009 (ip), vehicle: distilled water + alcohol", "value": "100 % of control"}, {"measurement": "T/C", "setting": "dose: 200.0 mg/kg/injection, schedule: Q01DX009 (ip), vehicle: distilled water + alcohol", "value": "100 % of control"}]}, {"compound": "COC(=O)CCC(N=C(OC)c1ccccc1)C(=O)OC", "note": "(centres undefined)", "values": [{"measurement": "T/C", "setting": "[1]", "value": "98 % of control"}, {"measurement": "T/C", "setting": "[2]", "value": "103 % of control"}, {"measurement": "T/C", "setting": "[3]", "value": "101 % of control"}]}, {"compound": "Cc1cc2[nH]c(Cl)c(/C=N/Nc3ccccc3[N+](=O)[O-])c2cc1O", "values": [{"measurement": "T/C", "setting": "dose: 50.0 mg/kg/injection, schedule: Q01DX001 (ip), vehicle: Klucel (hydroxypropylcellulose) (HPC)", "value": "96 % of control"}, {"measurement": "T/C", "setting": "dose: 100.0 mg/kg/injection, schedule: Q01DX001 (ip), vehicle: Klucel (hydroxypropylcellulose) (HPC)", "value": "99 % of control"}, {"measurement": "T/C", "setting": "dose: 200.0 mg/kg/injection, schedule: Q01DX001 (ip), vehicle: Klucel (hydroxypropylcellulose) (HPC)", "value": "90 % of control and 96 % of control"}]}, {"compound": "CC1=COC2CCCCC2O1", "note": "(centres undefined) (tested in a mixture with another compound)", "values": [{"measurement": "T/C", "setting": "dose: 25.0 mg/kg/injection, schedule: Q01DX009 (ip), vehicle: acetone", "value": "111 % of control"}, {"measurement": "T/C", "setting": "dose: 50.0 mg/kg/injection, schedule: Q01DX009 (ip), vehicle: acetone", "value": "105 % of control"}]}, {"compound": "CCOC(=O)c1cc(CC)sc1NC(=O)CC(C)=O", "values": [{"measurement": "T/C", "setting": "[4]", "value": "97 % of control"}, {"measurement": "T/C", "setting": "[5]", "value": "100 % of control"}, {"measurement": "T/C", "setting": "[6]", "value": "97 % of control"}]}, {"compound": "CCOC(=O)c1cc2c(nc1C)-c1cc(Cl)ccc1OC2OCc1ccccc1", "note": "(centres undefined)", "values": [{"measurement": "T/C", "setting": "[4]", "value": "88 % of control"}, {"measurement": "T/C", "setting": "[5]", "value": "94 % of control"}, {"measurement": "T/C", "setting": "[6]", "value": "97 % of control"}]}, {"compound": "CCC1(c2ccccc2)CCCC/C1=N/Nc1ccc([N+](=O)[O-])cc1[N+](=O)[O-]", "note": "(centres undefined)", "values": [{"measurement": "T/C", "setting": "dose: 100.0 mg/kg/injection, schedule: Q04DX003 (ip), vehicle: Klucel (hydroxypropylcellulose) (HPC)", "value": "91 % of control"}, {"measurement": "T/C", "setting": "dose: 200.0 mg/kg/injection, schedule: Q04DX003 (ip), vehicle: Klucel (hydroxypropylcellulose) (HPC)", "value": "92 % of control"}, {"measurement": "T/C", "setting": "dose: 400.0 mg/kg/injection, schedule: Q04DX003 (ip), vehicle: Klucel (hydroxypropylcellulose) (HPC)", "value": "99 % of control"}]}, {"compound": "CCOC(=S)SCC(=O)NC", "values": [{"measurement": "T/C", "setting": "dose: 50.0 mg/kg/injection, schedule: Q01DX009 (ip), vehicle: saline", "value": "98 % of control"}, {"measurement": "T/C", "setting": "dose: 100.0 mg/kg/injection, schedule: Q01DX009 (ip), vehicle: saline", "value": "107 % of control"}, {"measurement": "T/C", "setting": "dose: 200.0 mg/kg/injection, schedule: Q01DX009 (ip), vehicle: saline", "value": "104 % of control"}]}, {"compound": "FC(F)(F)c1cccc(N(c2nc(Cl)nc(Cl)n2)c2nc(Cl)nc(Cl)n2)c1", "values": [{"measurement": "T/C", "setting": "dose: 50.0 mg/kg/injection, schedule: Q01DX009 (ip), vehicle: suspension in saline", "value": "94 % of control"}, {"measurement": "T/C", "setting": "dose: 100.0 mg/kg/injection, schedule: Q01DX009 (ip), vehicle: suspension in saline", "value": "92 % of control"}, {"measurement": "T/C", "setting": "dose: 200.0 mg/kg/injection, schedule: Q01DX009 (ip), vehicle: suspension in saline", "value": "91 % of control"}]}, {"compound": "COc1cccc2c1C(=O)c1c(O)c3c(c(O)c1C2=O)CC(O)(C(=O)CO)CC3OC1CC(NCC2(O)OCC(O)C(O)C2O)C(O)C(C)O1", "note": "(centres undefined)", "values": [{"measurement": "T/C", "setting": "dose: 14.5 mg/kg/injection, schedule: Q04DX003 (ip), vehicle: water", "value": "179 % of control"}, {"measurement": "T/C", "setting": "dose: 29.0 mg/kg/injection, schedule: Q04DX003 (ip), vehicle: water", "value": "239 % of control"}, {"measurement": "T/C", "setting": "dose: 58.0 mg/kg/injection, schedule: Q04DX003 (ip), vehicle: water", "value": "116 % of control"}]}, {"compound": "CN1CCC(O)(c2ccccc2)C(O)C1", "note": "(centres undefined)", "values": [{"measurement": "T/C", "setting": "dose: 50.0 mg/kg/injection, schedule: Q01DX005 (ip), vehicle: saline with Tween-80", "value": "95 % of control"}, {"measurement": "T/C", "setting": "dose: 100.0 mg/kg/injection, schedule: Q01DX005 (ip), vehicle: saline with Tween-80", "value": "93 % of control"}, {"measurement": "T/C", "setting": "dose: 200.0 mg/kg/injection, schedule: Q01DX005 (ip), vehicle: saline with Tween-80", "value": "90 % of control"}]}, {"compound": "O=C(CSC1CCc2ccccc21)N/N=C/c1ccco1", "note": "(centres undefined)", "values": [{"measurement": "T/C", "setting": "[1]", "value": "98 % of control"}, {"measurement": "T/C", "setting": "[2]", "value": "100 % of control"}, {"measurement": "T/C", "setting": "[3]", "value": "88 % of control"}]}, {"compound": "O=C(O)/C=C/S(=O)(=O)c1ccc(Cl)cc1", "values": [{"measurement": "T/C", "setting": "dose: 5.0 mg/kg/injection, schedule: Q01DX009 (ip), vehicle: Klucel (hydroxypropylcellulose) (HPC)", "value": "89 % of control"}, {"measurement": "T/C", "setting": "dose: 10.0 mg/kg/injection, schedule: Q01DX009 (ip), vehicle: Klucel (hydroxypropylcellulose) (HPC)", "value": "98 % of control"}, {"measurement": "T/C", "setting": "dose: 20.0 mg/kg/injection, schedule: Q01DX009 (ip), vehicle: Klucel (hydroxypropylcellulose) (HPC)", "value": "96 % of control"}, {"measurement": "T/C", "setting": "dose: 40.0 mg/kg/injection, schedule: Q01DX009 (ip), vehicle: Klucel (hydroxypropylcellulose) (HPC)", "value": "99 % of control"}]}]}
